We go through one compound from EP4623912A1, “A METHOD FOR DEFATTENING A STEATOTIC LIVER EX VIVO” (ETH Zurich, priority 2024, dated 2025).

The test system of one test is ATGL. The test is described as follows: ATGL response to glucose deprivation after UCB9608-mediated depletion of Golgi Ptdlns4P. The class given is cell-based. The conditions noted are these: Golgi Ptdlns4P depleted by UCB9608.
For test [1], the system named is male C57BL/6N wild-type mice. The test is described as follows: HFD-induced hepatic steatosis (NAFLD) mouse model. It counts as in vivo. The conditions noted are these: HFD 12 weeks. Here is the method: Male mice were used for NAFLD induction via feeding on HFD. ROSA26-LSL-spCas9 mice were injected with AAV-U6-Cu/7 gRNAs-TBG-Cre and AAV-U6-Fbxw8 gRNAs-TBG-Cre virus pools at a dose of 3×10^11 genome copies/mouse and fed in HFD for 12 weeks and livers were harvested after 6 hours fasting. To study PI4KB in NAFLD progression, male ROSA26-LSL-spCas9 mice were fed in HFD for 12 weeks to induce fatty liver before induction of hepatocyte specific depletion of PI4KB via intravenous administration of AAV8. After another 8 weeks, mice were dissected to harvest liver after 6 hours fasting. Likewise, male C57BL/6N wild-type mice and liver specific Atgl knockout mice (AtgILKO) were challenged with HFD for 12 weeks to induce fatty liver prior to administration of UCB9608 mixed in HFD (5 mg/kg) for another 8 weeks. Then the mice were dissected to harvest tissues and sample blood after 6 hours fasting Atgl floxed mice (The Jackson Lab strain) were crossed with Albumin-Cre (The Jackson Lab strain) and Adip-CreERT2 strains to obtain Alb-Atgfl^fl/fl and AdipcreERT2-Atgl^fl/fl mice (Sitnick,M.T. et al, Diabetes 62, (2013)), which deplete ATGL protein in the liver and the adipose depots (induced after tamoxifen gavage), respectively. Male mice from both strains were injected with 2-DG (2 g/kg BW) to induce glucose deprivation for 6 hours prior to tissue and blood harvesting.
Adipose depots, liver pieces, differentiated iBAs, HepG2, HEK293T and HEK293-AAV cell types were homogenized in RIPA buffer (50 mM Tris-HCl pH 7.4, 150 mM NaCl, 2 mM EDTA, 1.0% Triton X100, 0.5% sodium deoxycholate) with protease inhibitors (Complete, Roche) and phosphatase inhibitors (Halt phosphatase inhibitor cocktail, ThermoFisher). The homogenates were centrifuged at 12,000×g for 10 min at 4°C to remove debris and collect whole cell extract (WCE). The concentration of WCE was determined by DC Protein Assay (Bio-Rad). After boiling the sample with Lämmeli buffer at 95°C for 5 min, equal amount of proteins was loaded and separated on 12% SDS-PAGE. The proteins were transferred to nitrocellulose membrane and blotted by ATGL (1:1000, Cell Signaling), CGI-58 (1:1000, Proteintech), phospho-HSL(Ser660) (1:1000, Cell Signaling), PLIN1 (1:1000, Cell Signaling), HSL (1:1000, Cell Signaling), γ-tubulin (1:10000, Sigma), FLAG (1:10000, Sigma; 1:1000, Cell Signaling), MGL (1:1000, Abcam), HA (1:1000, Cell signaling), FBXW8 (1:100, Santa Cruz; 1:1000, Sigma), CUL7 (1:100, Santa Cruz), HSP90 (1:1000, Cell Signaling), K48 polyubiquitin (1:1000, Cell signaling), PI4KB (1:1000, Sigma), SACM1L (1:1000, Sigma), AKT1 (1:1000, Cell Signaling), phospho-AKT1(Ser473) (1:1000, Cell Signaling), TGN46 (1:1000, Abcam), MAOA (1:1000, Abcam), PLIN2 (1:1000, Abcam), PMP70 (1:10000, Sigma), Calnexin (1:1000, Cell Signaling), ARF1 (1:1000, Invitrogen), GAPDH (1:1000, Cell Signaling), RAB7 (1:1000, Cell Signaling), alpha 1 Sodium Potassium ATPase (1:1000, Abcam), Cleaved Caspase-3 (1:1000, Cell Signaling), phospho-AMPKα (Thr172) (1:1000, Cell Signaling), AMPKα (1:1000, Cell Signaling) and GM130 (1:1000, Proteintech). […]
Plasma collected from mice under different conditions was used to determine levels of lipolysis and liver injury. FFA levels were measured via NEFA assay kit (Wako NEFA kit). TG levels were determined via TG assay kit (Roche Trig/GB reagent). […] The absorbance was monitored using Synergy Gen5 Platereader.
Weight of liver pieces (50-100 mg) was recorded before homogenization by 1 mL isopropanol per 50 mg tissue. […]

The subject of the next test is C57BL/6N male mice. The test is described as follows: Indirect calorimetry in HFD-fed mice. The conditions noted are these: HFD mixed with UCB9608 (5 mg/kg) 3 weeks, vs DMSO. The class given is in vivo, mouse. The procedure:
8-10 weeks old C57BL/6N male mice were fed on HFD mixing with DMSO or UCB9608 (5 mg/kg) for 3 weeks before indirect calorimetry measurements were performed with Phenomaster (TSE systems) according to the manufacturer's instructions. Animals were single caged and adapted to the metabolic cage for 48h prior to metabolic recording. The energy expenditure between both groups was analyzed via ANCOVA method and RER was analyzed via two-way ANOVA method.

In test [2] the test system is mouse model with organ engraftment. The conditions noted are these: in vivo; cited from earlier work.
The mark [3] stands for this setting: then UCB9608 in HFD (5 mg/kg) 8 weeks, vs DMSO.

As to `COc1ccc(NC(=O)N2CCN(c3nc(N)nc4c3cnn4C)[C@@H](C)C2)c(C)c1` [UCB9608], the “ATGL response to glucose deprivation” value in the test with ATGL is “loss of ATGL regulation”. Moreover, in test [1] (setting [3]), the “ATGL protein levels in the gWAT” value is listed as “significantly greater”, the “ATGL protein levels in the iBAT” value is “significantly greater” and the “ATGL protein levels in the liver” value is given as “significantly greater”. Further, the “hepatic steatosis (hepatic TG levels)” value in test [1] (then UCB9608 in HFD (5 mg/kg) 8 weeks, requires ATGL in the liver (Fig. 6h)) is on record as “substantially attenuated”. The “plasma FFA levels” value in test [1] (then UCB9608 mixed in HFD (5 mg/kg) 8 weeks, vs DMSO (Fig. 6g)) is listed as “significantly increased”. The energy expenditure result in the test on C57BL/6N male mice is “higher”. Moreover, in test [2], the “efficacy in the mouse model with organ engraftment” value was “effective”.
